Test results as given in patent publication US10131679B2, “Substituted dihydropyrrolopyrazole compound” (UBE INDUSTRIES, LTD., priority 2014, dated 2018).

Experiments:
[1] = target: T1, CDK7 (Homo sapiens, UniProt P50613); assay: CDK7 enzyme inhibition test; format: biochemical; details: Ki=IC50/(1+S/Km); 33P bound to MBP, [γ-33P]ATP, 30° C. for 20 minutes; read-out: Ki value of CDK7 inhibitory activity
T1 construct: purchased Carna Biosciences, Inc. 04-108
Method in brief: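 Recombinant CDK7 with MBP substrate and [γ-33P]ATP (500 μM solution, diluted into the mix) in HEPES pH 7.4/DTT/Triton X-100/MgCl2, 20 min at 30 °C. TCA-precipitated 33P-MBP counted by scintillation; IC50 from inhibition, Ki = IC50/(1+S/Km).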

[2] = system: human large intestine cancer cell line (HCT-116); assay: Human large intestine cancer (HCT-116) cell growth inhibition test; format: cell-based; details: 72 h, HCT-116, culture for 3 days, sulforhodamine B absorbance
Method in brief: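 HCT-116 cells seeded at 1.0×10^3 cells/well in McCoy's 5a with 10% FBS, then exposed to compound (0.1% DMSO final) for 3 days. Growth measured by sulforhodamine B absorbance; IC50 derived from concentration-inhibition data.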

T1 sequence (P50613 whole entry): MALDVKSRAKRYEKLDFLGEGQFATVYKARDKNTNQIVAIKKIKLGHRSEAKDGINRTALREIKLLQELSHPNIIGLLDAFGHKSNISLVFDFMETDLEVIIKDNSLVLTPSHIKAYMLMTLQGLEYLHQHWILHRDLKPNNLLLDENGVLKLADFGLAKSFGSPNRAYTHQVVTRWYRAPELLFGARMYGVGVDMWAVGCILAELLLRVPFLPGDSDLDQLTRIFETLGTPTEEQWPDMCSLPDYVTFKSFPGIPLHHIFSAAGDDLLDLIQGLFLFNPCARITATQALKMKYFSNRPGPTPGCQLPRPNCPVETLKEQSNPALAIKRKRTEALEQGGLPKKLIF
T1 sequence (P51946 whole entry partner): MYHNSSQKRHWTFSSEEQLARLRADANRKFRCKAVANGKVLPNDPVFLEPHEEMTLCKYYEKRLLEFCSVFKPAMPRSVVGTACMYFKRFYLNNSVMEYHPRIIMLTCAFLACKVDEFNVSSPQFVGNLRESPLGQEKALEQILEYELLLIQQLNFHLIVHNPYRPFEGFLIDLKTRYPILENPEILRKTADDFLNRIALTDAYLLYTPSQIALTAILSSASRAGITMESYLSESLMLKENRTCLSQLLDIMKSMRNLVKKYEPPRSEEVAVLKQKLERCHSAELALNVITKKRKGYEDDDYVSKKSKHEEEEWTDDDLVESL
T1 sequence (P51948 whole entry partner): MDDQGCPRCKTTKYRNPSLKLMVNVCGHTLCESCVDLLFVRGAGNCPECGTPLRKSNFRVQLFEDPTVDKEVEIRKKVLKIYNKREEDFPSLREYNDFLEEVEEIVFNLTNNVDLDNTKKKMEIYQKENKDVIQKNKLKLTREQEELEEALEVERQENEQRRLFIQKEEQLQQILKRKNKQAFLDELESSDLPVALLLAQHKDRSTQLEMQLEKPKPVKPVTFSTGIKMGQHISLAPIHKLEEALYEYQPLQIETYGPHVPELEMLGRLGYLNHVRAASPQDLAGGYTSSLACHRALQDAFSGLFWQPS

Ki [1] | IC50 [2] | Structure (SMILES)
≤ 50 nM | ≤ 500 nM | CCCO[C@@H](C(=O)N1Cc2c(NC(=O)C3([Si](C)(C)C)CCC3)n[nH]c2C1(C)C)c1ccccc1 [IV-1196, (R)—N-[6,6-Dimethyl-5-(2-phenyl-2-propoxyacetyl)-1,4,5,6-tetrahydropyrrolo[3,4-c]pyrazol-3-yl]-1-(trimethylsilyl)cyclobutanecarboxamide]
≤ 50 nM | ≤ 500 nM | CC1(C)c2[nH]nc(NC(=O)C3([Si](C)(C)C)CCC3)c2CN1C(=O)[C@H](OC1CC1)c1ccccc1 [IV-1208, (R)—N-[5-(2-Cyclopropoxy-2-phenylacetyl)-6,6-dimethyl-1,4,5,6-tetrahydropyrrolo[3,4-c]pyrazol-3-yl]-1-(trimethylsilyl)cyclobutanecarboxamide]
≤ 50 nM | ≤ 500 nM | CC(C)(O)[C@@H](NC(=O)N1Cc2c(NC(=O)C3([Si](C)(C)C)CCC3)n[nH]c2C1(C)C)c1ccccc1 [IV-171, (S)—N-(2-Hydroxy-2-methyl-1-phenylpropyl)-6,6-dimethyl-3-[1-(trimethylsilyl)cyclobutanecarboxamido]-4,6-dihydropyrrolo[3,4-c]pyrazole-5(1H)-carboxamide]
≤ 50 nM | ≤ 500 nM | CC1(C)c2[nH]nc(NC(=O)C(C)(C)[Si](C)(C)C)c2CN1C(=O)N[C@H](CO)c1ccccc1 [II-114, (S)—N-(2-Hydroxy-1-phenylethyl)-6,6-dimethyl-3-[2-methyl-2-(trimethylsilyl)propanamido]-4,6-dihydropyrrolo[3,4-c]pyrazole-5(1H)-carboxamide]
≤ 50 nM | ≤ 500 nM | CC1(C)c2[nH]nc(NC(=O)C3([Si](C)(C)C)CCC3)c2CN1C(=O)NCC(O)c1ccccc1 (stereo not shown) [IV-450, N-(2-Hydroxy-2-phenylethyl)-6,6-dimethyl-3-[1-(trimethylsilyl)cyclobutanecarboxamido]-4,6-dihydropyrrolo[3,4-c]pyrazole-5(1H)-carboxamide]
≤ 50 nM | ≤ 500 nM | CC1(C)c2[nH]nc(NC(=O)C3([Si](C)(C)C)CC3)c2CN1C(=O)N[C@H](CO)c1ccccc1 [III-114, (S)—N-(2-Hydroxy-1-phenylethyl)-6,6-dimethyl-3-[1-(trimethylsilyl)cyclopropanecarboxamido]-4,6-dihydropyrrolo[3,4-c]pyrazole-5(1H)-carboxamide]
≤ 50 nM | ≤ 500 nM | CC1(C)c2[nH]nc(NC(=O)C3([Si](C)(C)C)CCC3)c2CN1C(=O)N[C@H](CO)c1ccccc1 [IV-114, (S)—N-(2-Hydroxy-1-phenylethyl)-6,6-dimethyl-3-[1-(trimethylsilyl)cyclobutanecarboxamido]-4,6-dihydropyrrolo[3,4-c]pyrazole-5(1H)-carboxamide]
≤ 50 nM | ≤ 500 nM | CC[Si](C)(C)C1(C(=O)Nc2n[nH]c3c2CN(C(=O)[C@H](OC)c2ccccc2)C3(C)C)CCC1 [IV-1178, (R)-1-(Ethyldimethylsilyl)-N-[5-(2-methoxy-2-phenylacetyl)-6,6-dimethyl-1,4,5,6-tetrahydropyrrolo[3,4-c]pyrazol-3-yl] cyclobutanecarboxamide]
≤ 50 nM | ≤ 500 nM | COC(C(=O)N1Cc2c(NC(=O)C3([Si](C)(C)C)CCC3)n[nH]c2C1(C)C)c1cccs1 (stereo not shown) [IV-1546, N-{5-[2-Methoxy-2-(thiophen-2-yl)acetyl]-6,6-dimethyl-1,4,5,6-tetrahydropyrrolo[3,4-c]pyrazol-3-yl}-1-(trimethylsilyl)cyclobutanecarboxamide]
≤ 50 nM | ≤ 500 nM | COC[C@@H](NC(=O)N1Cc2c(NC(=O)C3([Si](C)(C)C)CCC3)n[nH]c2C1(C)C)c1ccccc1 [IV-123, (S)—N-(2-Methoxy-1-phenylethyl)-6,6-dimethyl-3-[1-(trimethylsilyl)cyclobutanecarboxamido]-4,6-dihydropyrrolo[3,4-c]pyrazole-5(1H)-carboxamide]
≤ 50 nM | ≤ 500 nM | CC1(C)c2[nH]nc(NC(=O)C3([Si](C)(C)C)CCC3)c2CN1C(=O)N[C@H](CO)C1CCCCC1 [IV-495, (S)—N-(1-Cyclohexyl-2-hydroxyethyl)-6,6-dimethyl-3-[1-(trimethylsilyl)cyclobutanecarboxamido]-4,6-dihydropyrrolo[3,4-c]pyrazole-5(1H)-carboxamide]
≤ 50 nM | ≤ 500 nM | CN(C(=O)N1Cc2c(NC(=O)C3([Si](C)(C)C)CCC3)n[nH]c2C1(C)C)[C@H](CO)c1ccccc1 [IV-119, (S)—N-(2-Hydroxy-1-phenylethyl)-N,6,6-trimethyl-3-[1-(trimethylsilyl)cyclobutanecarboxamido]-4,6-dihydropyrrolo[3,4-c]pyrazole-5(1H)-carboxamide]
≤ 50 nM | ≤ 500 nM | CC1(C)c2[nH]nc(NC(=O)C3([Si](C)(C)C)CCC3)c2CN1C(=O)C(CO)c1ccccc1 (stereo not shown) [IV-632, N-[5-(3-Hydroxy-2-phenylpropanoyl)-6,6-dimethyl-1,4,5,6-tetrahydropyrrolo[3,4-c]pyrazol-3-yl]-1-(trimethylsilyl)cyclobutanecarboxamide]
≤ 50 nM | ≤ 500 nM | CO[C@@H](C(=O)N1Cc2c(NC(=O)C3([Si](C)(C)C)CCC3)n[nH]c2C1(C)C)c1ccccc1 [IV-1175, (R)—N-[5-(2-Methoxy-2-phenylacetyl)-6,6-dimethyl-1,4,5,6-tetrahydropyrrolo[3,4-c]pyrazol-3-yl]-1-(trimethylsilyl)cyclobutanecarboxamide]
